Laboratory results from US7989649B2, “Tumor imaging compounds” (Emory University, priority 2002, dated 2011).

Experiments:
[1] = Rodent biodistribution study in normal Fischer rats; assay type: in vivo, rat; conditions: for Tissue distribution of radioactivity, Blood / Tissue distribution of radioactivity, Bone / Tissue distribution of radioactivity, Brain / Tissue distribution of radioactivity, Heart / Tissue distribution of radioactivity, Kidney / Tissue distribution of radioactivity, Liver / Tissue distribution of radioactivity, Lung / Tissue distribution of radioactivity, Muscle / Tissue distribution of radioactivity, Pancreas / Tissue distribution of radioactivity, Spleen / Tissue distribution of radioactivity, Testis: normal Fischer rats
Method: Rodent biodistribution studies. The same procedures were used to evaluate [^18F]5a and [^18F]5b separately in rodents. The tissue distribution of radioactivity was determined in 16 normal male Fischer 344 rats (200-250 g) after intravenous injection of ˜85 μCi of [^18F]5a or [^18F]5b in 0.3 mL of sterile water. The animals were allowed food and water ad libitum before the experiment. Following anesthesia induced with an intramuscular injection of 0.1 mL/100 g of a 1:1 ketamine ([…]):xylazine (20 mg/mL) solution, the radiolabeled amino acid was injected into the rats via tail vein catheters. Groups of four rats were killed at 5 minutes, 30 minutes, 60 minutes and 120 minutes after injection of the dose. The animals were dissected, and selected tissues were weighed and counted along with dose standards in a Packard Cobra II Auto-Gamma Counter. The raw counts were decay corrected, and the counts were normalized as the percent of total injected dose per gram of tissue (% ID/g). A comparison of the uptake of activity in the tissues at each time point was analyzed using a 1-way ANOVA (GraphPad Prism software package).

[2] = system: 9 L gliosarcoma tumor; experiment: Biodistribution in Fischer rats with intracranial 9 L gliosarcoma tumor; assay type: in vivo; conditions: tumor-bearing Fischer rats; for Tissue distribution of radioactivity, Brain: normal brain contralateral to tumor
Method: Tumor induction and animal preparation. All animal experiments were carried out under humane conditions and were approved by the Institutional Animal Use and Care Committee (IUCAC) at Emory University. Rat 9 L gliosarcoma cells were implanted into the brains of male Fischer rats as described previously [Shoup, T M et al. (1999), J. Nucl. Med. 40:331-338]. Briefly, anesthetized rats placed in a stereotactic head holder were injected with a suspension of 4×10^4 rat 9 L gliosarcoma cells (1×10^7 per mL) in a location 3 mm right of midline and 1 mm anterior to the bregma at a depth of 5 mm deep to the outer table. The injection was performed over the course of 2 minutes, and the needle was withdrawn over the course of 1 minute to minimize the backflow of tumor cells. The burr hole and scalp incision were closed, and the animals were returned to their original colony after recovering from the procedure. Intracranial tumors developed that produced weight loss, apathy and hunched posture in the tumor-bearing rats, and the animals were used at 17-19 days after implantation. Of the 30 animals implanted with tumor cells, 25 developed tumors visible to the naked eye upon dissection and were used in the study.
The tissue distribution of radioactivity was also determined in tumor-bearing Fischer 344 rats following intravenous injection of ˜35 μCi of [^18F]5a or [^18F]5b in 0.3 mL of sterile water. The procedure was similar to that already described for normal rats with the following modifications. The tail vein injections were performed in awake animals using a RTV-190 rodent restraint device (Braintree Scientific) to avoid mortality accompanying anesthesia in the presence of an intracranial mass. The animals were killed at 5 minutes, 60 minutes or 120 minutes post-injection. The same tissues were assayed as in normal rats with the addition of the tumor tissue, and the corresponding region of brain contralateral to the tumor was excised and used for comparison. The uptake in the tumor and contralateral brain at each time point was compared via a two-tailed t-test for paired observations (GraphPad Prism software package).

[3] = 5 min after injection, listed as [^18F]N-MeFAMP (5b)
[4] = 60 min after injection, listed as [^18F]N-MeFAMP (5b)
[5] = 120 min after injection, listed as [^18F]N-MeFAMP (5b)

## CNC(C)(CF)C(=O)O (racemic) [[^18F]5b, 3-fluoro-2-methyl-2-(methylamino)propanoic acid]
[1]; 5 min after injection
  Tissue distribution of radioactivity, Blood: 0.61 ± 0.02 percent dose per gram
  Tissue distribution of radioactivity, Bone: 0.34 ± 0.04 percent dose per gram
  Tissue distribution of radioactivity, Brain: 0.04 ± 0.005 percent dose per gram
  Tissue distribution of radioactivity, Heart: 0.22 ± 0.01 percent dose per gram
  Tissue distribution of radioactivity, Kidney: 8.12 percent dose per gram
  Tissue distribution of radioactivity, Liver: 0.79 ± 0.06 percent dose per gram
  Tissue distribution of radioactivity, Lung: 0.53 ± 0.03 percent dose per gram
  Tissue distribution of radioactivity, Muscle: 0.16 ± 0.008 percent dose per gram
  Tissue distribution of radioactivity, Pancreas: 2.73 percent dose per gram
  Tissue distribution of radioactivity, Spleen: 0.44 ± 0.06 percent dose per gram
  Tissue distribution of radioactivity, Testis: 0.17 ± 0.004 percent dose per gram
[1]; [3]
  Tissue distribution of radioactivity, Kidney: 8.12 ± 0.62 percent dose per gram
  Tissue distribution of radioactivity, Pancreas: 2.73 ± 0.28 percent dose per gram
[1]; 30 min after injection
  Tissue distribution of radioactivity, Blood: 0.30 ± 0.003 percent dose per gram
  Tissue distribution of radioactivity, Bone: 0.32 ± 0.04 percent dose per gram
  Tissue distribution of radioactivity, Brain: 0.04 ± 0.004 percent dose per gram
  Tissue distribution of radioactivity, Heart: 0.23 ± 0.03 percent dose per gram
  Tissue distribution of radioactivity, Kidney: 4.60 ± 0.70 percent dose per gram
  Tissue distribution of radioactivity, Liver: 0.72 ± 0.09 percent dose per gram
  Tissue distribution of radioactivity, Lung: 0.50 ± 0.07 percent dose per gram
  Tissue distribution of radioactivity, Muscle: 0.16 ± 0.003 percent dose per gram
  Tissue distribution of radioactivity, Pancreas: 3.00 ± 0.23 percent dose per gram
  Tissue distribution of radioactivity, Spleen: 0.75 ± 0.06 percent dose per gram
  Tissue distribution of radioactivity, Testis: 0.11 ± 0.005 percent dose per gram
[1]; 60 min after injection
  Tissue distribution of radioactivity, Blood: 0.18 ± 0.02 percent dose per gram
  Tissue distribution of radioactivity, Bone: 0.29 ± 0.04 percent dose per gram
  Tissue distribution of radioactivity, Brain: 0.03 ± 0.003 percent dose per gram
  Tissue distribution of radioactivity, Heart: 0.20 ± 0.02 percent dose per gram
  Tissue distribution of radioactivity, Kidney: 2.73 ± 0.35 percent dose per gram
  Tissue distribution of radioactivity, Liver: 0.78 ± 0.10 percent dose per gram
  Tissue distribution of radioactivity, Lung: 0.38 ± 0.07 percent dose per gram
  Tissue distribution of radioactivity, Muscle: 0.15 ± 0.007 percent dose per gram
  Tissue distribution of radioactivity, Pancreas: 3.24 ± 0.30 percent dose per gram
  Tissue distribution of radioactivity, Spleen: 0.68 ± 0.02 percent dose per gram
  Tissue distribution of radioactivity, Testis: 0.08 ± 0.005 percent dose per gram
[1]; 120 min after injection
  Tissue distribution of radioactivity, Blood: 0.10 ± 0.007 percent dose per gram
  Tissue distribution of radioactivity, Bone: 0.20 ± 0.02 percent dose per gram
  Tissue distribution of radioactivity, Brain: 0.03 ± 0.001 percent dose per gram
  Tissue distribution of radioactivity, Heart: 0.17 ± 0.02 percent dose per gram
  Tissue distribution of radioactivity, Kidney: 1.36 ± 0.27 percent dose per gram
  Tissue distribution of radioactivity, Liver: 0.58 ± 0.11 percent dose per gram
  Tissue distribution of radioactivity, Lung: 0.30 ± 0.08 percent dose per gram
  Tissue distribution of radioactivity, Muscle: 0.13 ± 0.007 percent dose per gram
  Tissue distribution of radioactivity, Pancreas: 2.88 ± 0.40 percent dose per gram
  Tissue distribution of radioactivity, Spleen: 0.47 ± 0.04 percent dose per gram
  Tissue distribution of radioactivity, Testis: 0.06 ± 0.005 percent dose per gram
[1]; normal rats, all time points
  brain uptake of radioactivity: approximately 0.04 % ID/g
[2]; 5 min after injection
  Tissue distribution of radioactivity, Blood: 0.69 ± 0.04 percent dose per gram
  Tissue distribution of radioactivity, Bone: 0.33 ± 0.04 percent dose per gram
  Tissue distribution of radioactivity, Heart: 0.34 ± 0.02 percent dose per gram
  Tissue distribution of radioactivity, Kidney: 9.33 ± 0.36 percent dose per gram
  Tissue distribution of radioactivity, Liver: 0.94 ± 0.12 percent dose per gram
  Tissue distribution of radioactivity, Lung: 0.61 ± 0.04 percent dose per gram
  Tissue distribution of radioactivity, Muscle: 0.22 ± 0.011 percent dose per gram
  Tissue distribution of radioactivity, Pancreas: 2.95 ± 0.58 percent dose per gram
  Tissue distribution of radioactivity, Spleen: 0.47 ± 0.04 percent dose per gram
  Tissue distribution of radioactivity, Testis: 0.19 ± 0.008 percent dose per gram
  Tissue distribution of radioactivity, Tumor: 1.29 percent dose per gram
  Tissue distribution of radioactivity, Brain: 0.032 ± 0.002 percent dose per gram
[2]; [3]
  Tissue distribution of radioactivity, Tumor: 1.29 ± 0.28 percent dose per gram
[2]; 60 min after injection
  Tissue distribution of radioactivity, Blood: 0.17 ± 0.02 percent dose per gram
  Tissue distribution of radioactivity, Bone: 0.23 ± 0.04 percent dose per gram
  Tissue distribution of radioactivity, Heart: 0.25 ± 0.03 percent dose per gram
  Tissue distribution of radioactivity, Kidney: 2.79 ± 0.31 percent dose per gram
  Tissue distribution of radioactivity, Liver: 0.85 ± 0.17 percent dose per gram
  Tissue distribution of radioactivity, Lung: 0.26 ± 0.03 percent dose per gram
  Tissue distribution of radioactivity, Muscle: 0.19 ± 0.02 percent dose per gram
  Tissue distribution of radioactivity, Pancreas: 2.42 ± 0.27 percent dose per gram
  Tissue distribution of radioactivity, Spleen: 0.45 ± 0.06 percent dose per gram
  Tissue distribution of radioactivity, Testis: 0.08 ± 0.008 percent dose per gram
  Tissue distribution of radioactivity, Tumor: 2.28 percent dose per gram
  Tissue distribution of radioactivity, Brain: 0.022 percent dose per gram
[2]; [4]
  Tissue distribution of radioactivity, Tumor: 2.28 ± 0.16 percent dose per gram
  Tissue distribution of radioactivity, Brain: 0.022 ± 0.006 percent dose per gram
[2]; 120 min after injection
  Tissue distribution of radioactivity, Blood: 0.10 ± 0.007 percent dose per gram
  Tissue distribution of radioactivity, Bone: 0.19 ± 0.02 percent dose per gram
  Tissue distribution of radioactivity, Heart: 0.19 ± 0.02 percent dose per gram
  Tissue distribution of radioactivity, Kidney: 1.59 ± 0.19 percent dose per gram
  Tissue distribution of radioactivity, Liver: 0.41 ± 0.06 percent dose per gram
  Tissue distribution of radioactivity, Lung: 0.19 ± 0.011 percent dose per gram
  Tissue distribution of radioactivity, Muscle: 0.16 ± 0.012 percent dose per gram
  Tissue distribution of radioactivity, Pancreas: 1.74 ± 0.24 percent dose per gram
  Tissue distribution of radioactivity, Spleen: 0.40 ± 0.02 percent dose per gram
  Tissue distribution of radioactivity, Testis: 0.08 ± 0.005 percent dose per gram
  Tissue distribution of radioactivity, Tumor: 1.94 percent dose per gram
  Tissue distribution of radioactivity, Brain: 0.020 percent dose per gram
[2]; [5]
  Tissue distribution of radioactivity, Tumor: 1.94 ± 0.12 percent dose per gram
  Tissue distribution of radioactivity, Brain: 0.020 ± 0.005 percent dose per gram
